Source: BindingDB's records for doi:10.1124/mol.58.6.1511 (Albert Einstein College of Medicine, 2000)

How the values were obtained:
[1] = biological target: Solute carrier organic anion transporter family member 2A1 (Homo sapiens, UniProt Q92959)
[2] = biological target: Prostaglandin F2-alpha receptor (Human, UniProt P43088)
Sequence of Prostaglandin F2-alpha receptor (P43088 whole entry): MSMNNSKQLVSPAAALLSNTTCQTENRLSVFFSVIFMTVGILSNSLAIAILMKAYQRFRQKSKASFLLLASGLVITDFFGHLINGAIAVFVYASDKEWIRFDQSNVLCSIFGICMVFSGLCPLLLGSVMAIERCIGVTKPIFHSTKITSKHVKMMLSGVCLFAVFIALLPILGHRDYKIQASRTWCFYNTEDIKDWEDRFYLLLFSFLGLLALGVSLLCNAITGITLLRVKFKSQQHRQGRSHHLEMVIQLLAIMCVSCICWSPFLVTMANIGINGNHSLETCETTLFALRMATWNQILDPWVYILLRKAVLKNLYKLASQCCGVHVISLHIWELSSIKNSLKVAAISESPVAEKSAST

SMILES | Ki [1] [µM] | Ki [2] [µM]
CCCCC[C@@H](O)/C=C/[C@@H]1[C@@H](C/C=C/CCCC(N)=O)[C@@H](O)C[C@H]1O [AGN 190911] | 7.3 | > 10
CCCCC[C@@H](O)/C=C/[C@@H]1[C@@H](C/C=C/CCCCN)[C@@H](O)C[C@H]1O [AGN 191088] | > 10 | > 10
CCCCC[C@@H](O)/C=C/[C@@H]1[C@@H](C/C=C/CCCC(=O)NS(C)(=O)=O)[C@@H](O)C[C@H]1O [AGN 191365] | 0.307 | > 10
CCCCC[C@H](/C=C/[C@@H]1[C@@H](C/C=C/CCCC(=O)O)[C@@H](O)C[C@H]1O)OC [AGN 191995] | > 10 | 0.228
CCCCC[C@H](/C=C/[C@@H]1[C@@H](C/C=C/CCCC(N)=O)[C@@H](O)C[C@H]1O)OC [AGN 192151] | > 10 | > 10
CCCCCC(O)C=CC1C(O)CC(O)C1CC=CCCCC(=O)OC(C)C (stereo not drawn) [PGF2 Alpha, 1-isopropyl ester] | 5 | 3.2

Compounds with a lower Ki [1], results first:

Ki [1] [µM] | Ki [2] [µM] | SMILES
0.045 | – | CCCCC[C@H](O)/C=C/C1[C@H](O)C[C@H](O)[C@@H]1C/C=C\CCCC(=O)O (stereo partly drawn) [(Z)-7-[(1R,3R,5S)-3,5-Dihydroxy-2-((E)-(S)-3-hydroxy-oct-1-enyl)-cyclopentyl]-hept-5-enoic acid]
0.071 | 8.13 | CCCCC[C@@H](O)/C=C/[C@@H]1[C@@H](C/C=C/CCCc2nnn[nH]2)[C@@H](O)C[C@H]1O [AGN 191366]
0.034 | > 10 | CCCCC[C@@H](O)/C=C/[C@@H]1[C@@H](C/C=C/CCCS(=O)(=O)NC(C)=O)[C@@H](O)C[C@H]1O [AGN 194394]
0.168 | 0.018 | CC(C)OC(=O)CCC/C=C\C[C@@H]1[C@@H](/C=C/[C@@H](O)CCc2ccccc2)[C@H](O)C[C@@H]1O [CAS_130209-76-6]
